Experimental data: US5340818A, “Methods and compositions for inhibiting tumor cell growth” (priority 1993, dated 1994)
“And” between values parts separate entries of the source, which are not always exact repeats. Equal values may be shown once. “Also recorded” adds a separate entry of the source. Read-outs that look alike come from different tables or passages of the source.

Key:
[1] = tested on: DNA synthesis in HL-60 cells; test: Inhibition of [3H-methyl]dThd incorporation into DNA of HL-60 cells; format: cell-based, human; conditions: Homo sapiens, HL-60, at 0.03 mg/mL; read-out: % Inhibition of Precursor Incorporation, DNA
In short: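 HL-60 cells, 2.2×10^6 /ml, preincubated 15 min with compound in 0.3% DMSO, then 30 min with [3H-methyl]dThd (1 μCi, 0.15 nmole/ml). DNA incorporation compared with DMSO-only control.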

HL-60 cells = test: HL-60 cell growth inhibition, 72 h; format: cell-based, human; conditions: HL-60, 72 h; for IC50: read-out: Cell Growth Inhibition, IC50
In short: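 HL-60 cells seeded at 1.5×10^5/ml in RPMI 1640, exposed 72 h at 37° C, 5% CO2 to compound at 0.0025-0.05 mg/ml in 0.1% DMSO. Viable cells counted by trypan blue exclusion; IC50 from median-effect analysis over three to five dose levels versus DMSO control.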

B-16 Melanoma = test: B-16 melanoma in mice; format: in vivo, mouse; conditions: day 1 QDX4
Source text: Chemotherapeutic Effects of Acronycine and TSA-35 against Solid

[2] = tested on: RNA synthesis in HL-60 cells; test: Inhibition of [5-3H]Cyd incorporation into RNA of HL-60 cells; format: cell-based, human; conditions: Homo sapiens, HL-60, 0.5 h
In short: (§1)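 HL-60 cells (2.2×10^6/ml) preincubated 15 min with compound (0.03 mg/ml, 0.3% DMSO), then 30 min with [5-3H]Cyd (5 μCi, 0.23 nmol/ml) for RNA or [2,3,4,5-3H]L-Leu (0.5 μCi, 0.004 nmol/ml) for protein. Inhibition relative to DMSO-only incorporation.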

Mecca lymphosarcoma = conditions: ip, 30 × 1 × 10 mg/kg/day; cited from earlier work
Carcinoma EO771 = Carcinoma EO771 (E07713 mammary adenocarcinoma) survival time evaluation in C57BL/6 mice; format: in vivo
Source text: Tumor-Carcinoma EO771 3 × 10^5 cells (ip) in C57BL/6, FEM,
(§2) Diluent-CMC + 1 drop Tween 80
(§3) Schedule: Day 1, QDX4 (ip)

[3] = tested on: protein synthesis in HL-60 cells; test: Inhibition of [2,3,4,5-3H]L-Leu incorporation into protein of HL-60 cells; format: cell-based, human; conditions: Homo sapiens
In short: as §1

Lewis lung carcinoma = Lewis lung carcinoma survival time evaluation in C57BL/6 mice; format: in vivo, mouse; set-up: Survival Time, individual mice / AST (average survival time): unit not given here; conditions: for AST (average survival time) / Day #7 AWC (average weight change) / N/T (29 day survivors/total mice) / Survival Time, individual mice / % ILS (increase in lifespan): day 1, QDX4 ip; for % ILS (increase in lifespan): 25% or greater indicates activity
Source text: Tumor-Lewis Lung C. 3 × 10^5 cells (ip) in C57BL/6, FEM, 19-21
as §2, §3

L1210/Dx cells = test: Cross-resistance studies: growth inhibition of doxorubicin-resistant L1210/Dx cells; format: cell-based
[4] = Table 8, 50 mg/kg ip, day 1 QDX4
[5] = Table 8, 100 mg/kg ip, day 1 QDX4
[6] = Table 8, 25 mg/kg ip, day 1 QDX4
[7] = Table 8, 150 mg/kg ip, day 1 QDX4

For COc1cc2c(c3c1c(=O)c1ccccc1n3C)C=CC(C)(C)O2 [Compound 1, Acronycine], the inhibition at 30 µg/mL [1] was roughly 90%, the “cell growth inhibition, in words” value (HL-60 cells) was “significantly active” and the “% ILS” value (B-16 Melanoma; 50 mg/kg ip) was 24%. For the same compound, the “Day 7 BWC (body weight change)” value (B-16 Melanoma; 50 mg/kg ip) was -0.6 g, the “N/T (40 day tumorfree mice/total)” value (B-16 Melanoma; 50 mg/kg ip) was 0/5 and the inhibition at 30 µg/mL ([2]; read-out: % Inhibition of Precursor Incorporation, RNA, at 0.03 mg/mL) was 21.3%. For the same compound, the Percent activity (Mecca lymphosarcoma) was 63(7) Percent, the “AST (average survival time)” value (Carcinoma EO771; 50 mg/kg, day 1, QDX4 ip) was 13.4 and the “Day #7 AWC (average weight change)” value (Carcinoma EO771; 50 mg/kg, day 1, QDX4 ip) was “+0.4 g”. For the same compound, the “N/T (22 day survivors/total mice)” value (Carcinoma EO771; 50 mg/kg, day 1, QDX4 ip) was 0/5, the “Survival Time, individual mice” value (Carcinoma EO771; 50 mg/kg, day 1, QDX4 ip) was 11 and 14 and 17 and the “% ILS (increase in lifespan)” value (Carcinoma EO771; 50 mg/kg, day 1, QDX4 ip, 25% or greater indicates activity) was 26%. The toxicity induced deaths (Carcinoma EO771; 100 mg/kg daily for 4 days ip) was 1 out of 3, the “AST (average survival time)” value (Carcinoma EO771; 100 mg/kg, day 1, QDX4 ip) was 11.0 and the “Day #7 AWC (average weight change)” value (Carcinoma EO771; 100 mg/kg, day 1, QDX4 ip) was “+0.5 g”. The “N/T (22 day survivors/total mice)” value (Carcinoma EO771; 100 mg/kg, day 1, QDX4 ip) was 0/3, the “% ILS (increase in lifespan)” value (Carcinoma EO771; 100 mg/kg, day 1, QDX4 ip, 25% or greater indicates activity) was 4% and the “Survival Time, individual mice” value (Carcinoma EO771; 100 mg/kg, day 1, QDX4 ip, t = died of toxicity) was 4t and 10 and 12. The “% ILS” value (Carcinoma EO771; [4]) was 26%, the “Day 7 BWC (body weight change)” value (Carcinoma EO771; [4]) was “+0.4 g” and the “N/T (40 day tumorfree mice/total)” value (Carcinoma EO771; [4]) was 0/5. The “% ILS” value (Carcinoma EO771; [5]) was 4%, the “N/T (40 day tumorfree mice/total)” value (Carcinoma EO771; [5]) was 0/3 and the death (Carcinoma EO771; [5]) was 1/3. For the same compound, the inhibition at 30 µg/mL ([3]; HL-60, read-out: % Inhibition of Precursor Incorporation, Protein, at 0.03 mg/mL) was 25.4%, the “AST (average survival time)” value (Lewis lung carcinoma; 25 mg/kg) was 14.6 and the “Day #7 AWC (average weight change)” value (Lewis lung carcinoma; 25 mg/kg) was -0.6 g. The “N/T (29 day survivors/total mice)” value (Lewis lung carcinoma; 25 mg/kg) was 0/5, the “Survival Time, individual mice” value (Lewis lung carcinoma; 25 mg/kg) was 14 and 17 and the “% ILS (increase in lifespan)” value (Lewis lung carcinoma; 25 mg/kg) was 40%. The “AST (average survival time)” value (Lewis lung carcinoma; 50 mg/kg) was 14.6, the “Day #7 AWC (average weight change)” value (Lewis lung carcinoma; 50 mg/kg) was -0.8 g and the “N/T (29 day survivors/total mice)” value (Lewis lung carcinoma; 50 mg/kg) was 0/5. The “Survival Time, individual mice” value (Lewis lung carcinoma; 50 mg/kg) was 14 and 15, the “% ILS (increase in lifespan)” value (Lewis lung carcinoma; 50 mg/kg) was 40% and the “% ILS” value (Lewis lung carcinoma; [6]) was 40%. For the same compound, the “Day 7 BWC (body weight change)” value (Lewis lung carcinoma; [6]) was -0.6 g, the “N/T (40 day tumorfree mice/total)” value (Lewis lung carcinoma; [6]) was 0/5 and the “% ILS” value (Lewis lung carcinoma; [4]) was 34%. For the same compound, the “Day 7 BWC (body weight change)” value (Lewis lung carcinoma; [4]) was -0.5 g, the “N/T (40 day tumorfree mice/total)” value (Lewis lung carcinoma; [4]) was 0/15 and the “N/T (40 day tumorfree mice/total)” value (Lewis lung carcinoma; [5]) was 0/5. The death (Lewis lung carcinoma; [5]) was 5/5.
With COc1c(OC)c(OC)c2c(c1O)c(=O)c1ccc(O)c(OC)c1n2C [Compound 31, Glyfoline] the inhibition at 30 µg/mL [1] was 93.5%, the “Cell Growth Inhibition, IC50” value (HL-60 cells) was 0.4 µg/mL and the “cell growth inhibition, in words” value (HL-60 cells) was “most potent compound in this series; also recorded: significant activity against leukemic cells in vitro”. The IC50 (HL-60 cells) was 1110 nM, the IC50 (HL-60 cells; Homo sapiens) was 0.4 µg/mL and 1.1 µM and the “% ILS” value (B-16 Melanoma; 25 mg/kg ip) was 31%. For the same compound, the “N/T (40 day tumorfree mice/total)” value (B-16 Melanoma; 25 mg/kg ip) was 0/5, the “% ILS” value (B-16 Melanoma; 50 mg/kg ip) was 40% and the “N/T (40 day tumorfree mice/total)” value (B-16 Melanoma; 50 mg/kg ip) was 0/5. For the same compound, the “% ILS” value (B-16 Melanoma; 150 mg/kg ip) was greater than 56%, the “N/T (40 day tumorfree mice/total)” value (B-16 Melanoma; 150 mg/kg ip) was 1/5 and the “(IC50) 0/(IC50) Dx” value (L1210/Dx cells; L1210/0 and L1210/Dx) was 1.58. For the same compound, the IC50 (L1210/Dx cells; Mus musculus, L1210/Dx (doxorubicin resistant)) was 3310 nM, the inhibition at 30 µg/mL ([2]; at 0.03 mg/mL, read-out: % Inhibition of Precursor Incorporation, RNA) was 65.7% and the “AST (average survival time)” value (Carcinoma EO771; 50 mg/kg, day 1, QDX4 ip) was 12.4. For the same compound, the “N/T (22 day survivors/total mice)” value (Carcinoma EO771; 50 mg/kg, day 1, QDX4 ip) was 0/5, the “Survival Time, individual mice” value (Carcinoma EO771; 50 mg/kg, day 1, QDX4 ip, listed as TSA-35) was 10 and 11 and 12 and 14 and 15 and the “AST (average survival time)” value (Carcinoma EO771; 100 mg/kg, day 1, QDX4 ip) was greater than 15. For the same compound, the “N/T (22 day survivors/total mice)” value (Carcinoma EO771; 100 mg/kg, day 1, QDX4 ip) was 1/3, the “Survival Time, individual mice” value (Carcinoma EO771; 100 mg/kg, day 1, QDX4 ip, t = died of toxicity, listed as TSA-35) was 11 and > 22 and the “% ILS (increase in lifespan)” value (Carcinoma EO771; ip, 50 mg/kg, 24 h) was 17%. The “% ILS (increase in lifespan)” value (Carcinoma EO771; ip, 100 mg/kg, 24 h) was greater than 39%, the toxicity induced deaths (Carcinoma EO771; mouse, in vivo) was “no deaths” and the “Day 7 BWC (body weight change)” value (Carcinoma EO771; mouse, in vivo, ip, 25 mg/kg) was “+0.6 g”. The “Day 7 BWC (body weight change)” value (Carcinoma EO771; mouse, in vivo, ip, 50 mg/kg) was “+0.3 g”, the inhibition at 30 µg/mL ([3]; HL-60, at 0.03 mg/mL, read-out: % Inhibition of Precursor Incorporation, Protein) was 90.7% and the “AST (average survival time)” value (Lewis lung carcinoma; 25 mg/kg) was 14.8. The “N/T (29 day survivors/total mice)” value (Lewis lung carcinoma; 25 mg/kg) was 0/5, the “% ILS (increase in lifespan)” value (Lewis lung carcinoma; 25 mg/kg) was 42% and the “Survival Time, individual mice” value (Lewis lung carcinoma; 25 mg/kg, listed as TSA-35) was 14 and 18. For the same compound, the “AST (average survival time)” value (Lewis lung carcinoma; 50 mg/kg) was greater than 20, the “N/T (29 day survivors/total mice)” value (Lewis lung carcinoma; 50 mg/kg) was 2 out of 5 and the “% ILS (increase in lifespan)” value (Lewis lung carcinoma; 50 mg/kg) was greater than 92%. The “N/T (29 day survivors/total mice)” value (Lewis lung carcinoma; 50 mg/kg, listed as TSA-35) was 2/5, the “Survival Time, individual mice” value (Lewis lung carcinoma; 50 mg/kg, listed as TSA-35) was 14 and > 29 and the “% ILS” value (Lewis lung carcinoma; [6]) was 42%. For the same compound, the “N/T (40 day tumorfree mice/total)” value (Lewis lung carcinoma; [6]) was 0/5, the “% ILS” value (Lewis lung carcinoma; [4]) was greater than 59% and the “N/T (40 day tumorfree mice/total)” value (Lewis lung carcinoma; [4]) was 2/15. For the same compound, the “% ILS” value (Lewis lung carcinoma; [5]) was greater than 46%, the “N/T (40 day tumorfree mice/total)” value (Lewis lung carcinoma; [5]) was 1/10 and the “% ILS” value (Lewis lung carcinoma; [7]) was greater than 79%. For the same compound, the “N/T (40 day tumorfree mice/total)” value (Lewis lung carcinoma; [7]) was 2/8, the “toxicity to mice, in words” value (Lewis lung carcinoma; mouse, in vivo) was “less toxicity to mice than that of compound 1” and the “Day 7 BWC (body weight change)” value (Lewis lung carcinoma; mouse, in vivo, ip, 25 mg/kg) was “+0.2 g”. The “Day 7 BWC (body weight change)” value (Lewis lung carcinoma; mouse, in vivo, ip, 50 mg/kg) was “+0.3 g”, the “Day 7 BWC (body weight change)” value (Lewis lung carcinoma; mouse, in vivo, ip, 100 mg/kg) was “+0.5 g” and the “Day 7 BWC (body weight change)” value (Lewis lung carcinoma; mouse, in vivo, ip, 150 mg/kg) was -0.3 g.
